Experimental data from US20210070748A1, “INHIBITORS OF BRUTONS TYROSINE KINASE” (Pharmacyclics LLC, priority 2015, published 2021).
pIC50: −log10 of the molar value.

What was measured:
Type in all cases: biochemical
LCK = LCK (Homo sapiens, UniProt P06239); assay: Inhibition of a panel of kinases, in vitro HotSpot kinase assay: LCK; conditions: D-compounds panel data; 1 μM ATP; read-out: IC50 LCK
ITK = target: T1, ITK (Homo sapiens, UniProt Q08881); assay: Inhibition of a panel of kinases, in vitro HotSpot kinase assay: ITK; conditions: D-compounds panel data; 1 μM ATP
T1 sequence (Q08881 1-620): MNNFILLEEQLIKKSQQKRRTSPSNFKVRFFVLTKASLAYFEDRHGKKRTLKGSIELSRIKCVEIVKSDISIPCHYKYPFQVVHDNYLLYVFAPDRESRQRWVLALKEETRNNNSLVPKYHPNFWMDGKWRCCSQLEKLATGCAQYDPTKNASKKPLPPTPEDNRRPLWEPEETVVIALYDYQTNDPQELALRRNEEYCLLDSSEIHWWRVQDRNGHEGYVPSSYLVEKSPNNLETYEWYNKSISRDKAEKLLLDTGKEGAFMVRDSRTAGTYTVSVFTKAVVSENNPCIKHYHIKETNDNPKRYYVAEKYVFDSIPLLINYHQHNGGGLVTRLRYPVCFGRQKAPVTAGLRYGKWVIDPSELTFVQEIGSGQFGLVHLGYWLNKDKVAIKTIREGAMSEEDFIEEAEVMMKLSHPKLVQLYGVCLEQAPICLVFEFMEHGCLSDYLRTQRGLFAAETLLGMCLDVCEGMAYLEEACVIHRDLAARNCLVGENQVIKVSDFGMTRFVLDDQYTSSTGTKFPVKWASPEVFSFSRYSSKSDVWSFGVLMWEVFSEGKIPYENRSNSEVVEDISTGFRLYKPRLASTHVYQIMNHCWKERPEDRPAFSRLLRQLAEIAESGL
Experimental: (§1) The degree of inhibition of a panel of kinases is determined using the in vitro HotSpot kinase assay (purified enzymes, ^33P-ATP, an appropriate substrate and 1 μM ATP).

BTK-WT = target: T2, BTK-WT (Homo sapiens, UniProt Q06187); assay: Btk in vitro inhibitory activity (one of Method A TR-FRET, Method B electrophoretic mobility shift, Method C radiometric filter binding); conditions: D-compounds panel data; read-out: IC50 BTK-WT
T2 construct: purified from insect cells as a full-length construct containing an N-terminal 6X-His tag; His6 (N); made in house; host or cells: insect cells (baculovirus Sf21 in Method B)
T2 sequence (Q06187 whole entry): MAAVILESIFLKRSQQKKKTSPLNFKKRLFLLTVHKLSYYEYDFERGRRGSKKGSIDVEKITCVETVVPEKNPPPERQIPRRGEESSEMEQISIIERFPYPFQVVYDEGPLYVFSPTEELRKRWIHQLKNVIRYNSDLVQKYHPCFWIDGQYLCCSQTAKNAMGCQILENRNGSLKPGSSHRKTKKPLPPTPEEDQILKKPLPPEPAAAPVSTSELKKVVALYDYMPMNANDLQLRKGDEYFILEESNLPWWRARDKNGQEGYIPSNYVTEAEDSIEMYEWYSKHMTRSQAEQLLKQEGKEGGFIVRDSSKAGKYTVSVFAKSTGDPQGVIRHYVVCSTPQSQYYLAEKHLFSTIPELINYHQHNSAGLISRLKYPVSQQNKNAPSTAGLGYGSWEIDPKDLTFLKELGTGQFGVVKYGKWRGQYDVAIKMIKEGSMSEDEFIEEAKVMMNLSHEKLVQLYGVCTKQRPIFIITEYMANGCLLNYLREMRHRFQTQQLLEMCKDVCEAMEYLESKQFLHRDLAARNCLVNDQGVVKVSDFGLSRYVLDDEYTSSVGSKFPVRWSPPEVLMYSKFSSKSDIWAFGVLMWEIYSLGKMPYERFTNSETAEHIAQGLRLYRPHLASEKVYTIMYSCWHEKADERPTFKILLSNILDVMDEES

EGFR = EGFR (Homo sapiens, UniProt P00533); assay: Inhibition of a panel of kinases, in vitro HotSpot kinase assay: EGFR; conditions: D-compounds panel data; 1 μM ATP
EGFR, sequence (P00533 25-1210): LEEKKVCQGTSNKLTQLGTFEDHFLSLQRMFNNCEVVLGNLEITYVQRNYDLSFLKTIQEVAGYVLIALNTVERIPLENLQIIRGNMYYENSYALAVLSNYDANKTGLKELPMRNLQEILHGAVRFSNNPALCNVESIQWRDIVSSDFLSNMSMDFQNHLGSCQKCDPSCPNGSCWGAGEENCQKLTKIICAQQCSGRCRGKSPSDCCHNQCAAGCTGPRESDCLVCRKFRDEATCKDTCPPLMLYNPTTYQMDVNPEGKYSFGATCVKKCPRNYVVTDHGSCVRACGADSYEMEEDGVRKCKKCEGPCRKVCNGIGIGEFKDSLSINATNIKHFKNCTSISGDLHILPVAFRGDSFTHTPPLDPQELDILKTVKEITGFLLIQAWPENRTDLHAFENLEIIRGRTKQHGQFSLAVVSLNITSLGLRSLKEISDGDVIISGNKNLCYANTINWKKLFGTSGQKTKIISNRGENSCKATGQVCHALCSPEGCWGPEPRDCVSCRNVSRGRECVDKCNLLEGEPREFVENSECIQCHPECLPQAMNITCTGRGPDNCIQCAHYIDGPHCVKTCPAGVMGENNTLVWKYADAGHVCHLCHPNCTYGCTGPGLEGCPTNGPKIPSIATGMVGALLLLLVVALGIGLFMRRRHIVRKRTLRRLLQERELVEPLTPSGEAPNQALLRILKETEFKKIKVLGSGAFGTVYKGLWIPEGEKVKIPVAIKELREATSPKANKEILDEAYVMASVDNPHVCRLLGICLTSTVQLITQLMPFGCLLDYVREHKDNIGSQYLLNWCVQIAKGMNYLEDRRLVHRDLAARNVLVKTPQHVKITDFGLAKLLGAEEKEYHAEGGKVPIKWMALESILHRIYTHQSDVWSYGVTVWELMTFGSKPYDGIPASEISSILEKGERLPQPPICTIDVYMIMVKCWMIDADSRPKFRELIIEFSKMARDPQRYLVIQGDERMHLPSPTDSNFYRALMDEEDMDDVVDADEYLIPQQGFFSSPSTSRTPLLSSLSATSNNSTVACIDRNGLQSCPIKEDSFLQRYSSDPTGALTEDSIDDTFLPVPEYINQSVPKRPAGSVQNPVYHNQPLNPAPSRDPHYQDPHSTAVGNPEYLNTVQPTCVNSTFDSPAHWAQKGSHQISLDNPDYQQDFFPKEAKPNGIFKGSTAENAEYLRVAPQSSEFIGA
Experimental: as §1

SRC = SRC (Homo sapiens, UniProt P12931); assay: Inhibition of a panel of kinases, in vitro HotSpot kinase assay: SRC; conditions: D-compounds panel data; 1 μM ATP
SRC, sequence (P12931 whole entry): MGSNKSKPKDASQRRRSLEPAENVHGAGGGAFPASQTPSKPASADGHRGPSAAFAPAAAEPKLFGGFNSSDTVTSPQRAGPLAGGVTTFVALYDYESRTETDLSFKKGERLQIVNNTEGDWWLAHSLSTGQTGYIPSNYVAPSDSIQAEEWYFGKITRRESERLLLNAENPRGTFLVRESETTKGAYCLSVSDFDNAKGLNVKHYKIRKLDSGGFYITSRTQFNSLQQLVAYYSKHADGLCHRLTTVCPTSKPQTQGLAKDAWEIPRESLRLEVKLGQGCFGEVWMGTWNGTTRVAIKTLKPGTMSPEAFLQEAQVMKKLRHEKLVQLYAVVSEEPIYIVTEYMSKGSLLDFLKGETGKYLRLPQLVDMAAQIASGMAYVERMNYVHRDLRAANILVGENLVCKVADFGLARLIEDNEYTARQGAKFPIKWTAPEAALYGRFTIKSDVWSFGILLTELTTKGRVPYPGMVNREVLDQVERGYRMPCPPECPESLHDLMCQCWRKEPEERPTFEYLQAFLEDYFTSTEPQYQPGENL
Experimental: as §1

LCK, sequence (P06239 whole entry): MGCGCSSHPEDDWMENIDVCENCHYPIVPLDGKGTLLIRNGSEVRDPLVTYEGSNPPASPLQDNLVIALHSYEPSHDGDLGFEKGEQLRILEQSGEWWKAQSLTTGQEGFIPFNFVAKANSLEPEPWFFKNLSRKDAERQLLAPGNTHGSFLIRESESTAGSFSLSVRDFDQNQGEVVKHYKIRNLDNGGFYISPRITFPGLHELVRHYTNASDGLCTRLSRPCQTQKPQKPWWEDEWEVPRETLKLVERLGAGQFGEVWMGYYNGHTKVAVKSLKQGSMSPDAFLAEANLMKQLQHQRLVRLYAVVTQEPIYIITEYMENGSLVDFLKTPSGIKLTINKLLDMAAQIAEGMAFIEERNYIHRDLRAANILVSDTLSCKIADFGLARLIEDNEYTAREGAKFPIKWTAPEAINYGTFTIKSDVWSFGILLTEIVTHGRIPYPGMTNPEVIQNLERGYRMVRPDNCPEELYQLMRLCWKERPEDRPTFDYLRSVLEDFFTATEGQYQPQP

Q: Which results are given for `C[C@@H]1[C@H](NC(=O)c2ccc(C3CC3)cc2F)CCCN1c1cnc(C(N)=O)c(Nc2ccc(N3CCN(C4CCCC4)CC3)cc2)n1` [Example D-5, 3-{[4-(4-cyclopentylpiperazin-1-yl)phenyl]amino}-5-[(2R,3R)-3-(4-cyclopropyl-2-fluorobenzamido)-2-methylpiperidin-1-yl]pyrazine-2-carboxamide]?
A: pIC50 (LCK): 6.00 to 7.00; pIC50 (ITK): 6.00 to 7.00; pIC50 (BTK-WT): ≥ 8.00; pIC50 (EGFR): 6.00 to 7.00; pIC50 (SRC): 7.00 to 8.00

Q: What does the source list for `C[C@@H]1[C@H](n2ccc3cc(C4CC4)ccc3c2=O)CCCN1c1cnc(C(N)=O)c(Nc2ccc(N3CCN(C)CC3)cc2)n1` [Example D-6, 5-[(2R,3R)-3-(6-cyclopropyl-1-oxo-1,2-dihydroisoquinolin-2-yl)-2-methylpiperidin-1-yl]-3-{[4-(4-methylpiperazin-1-yl)phenyl]amino}pyrazine-2-carboxamide]?
A: pIC50 (LCK): 7.00 to 8.00; pIC50 (ITK): 6.00 to 7.00; pIC50 (BTK-WT): ≥ 8.00; pIC50 (EGFR): 6.00 to 7.00; pIC50 (SRC): 7.00 to 8.00

Q: With `CC(C)N1CCN(c2ccc(Nc3nc(N4CCC[C@@H](NC(=O)c5ccc(C6CC6)cc5F)[C@H]4C)cnc3C(N)=O)cc2)CC1` [Example D-7, 5-[(2R,3R)-3-(4-cyclopropyl-2-fluorobenzamido)-2-methylpiperidin-1-yl]-3-({4-[4-(propan-2-yl)piperazin-1-yl]phenyl}amino)pyrazine-2-carboxamide] as the molecule, how does the pIC50 (LCK) read?
A: 7.00 to 8.00

Q: What about the pIC50 (ITK) of the same molecule?
A: 7.00 to 8.00

Q: And the pIC50 (BTK-WT)?
A: ≥ 8.00

Q: What about the pIC50 (EGFR) of the same molecule?
A: 6.00 to 7.00

Q: What about the pIC50 (SRC) of the same molecule?
A: 7.00 to 8.00

Q: `C[C@@H]1[C@H](NC(=O)c2ccc(C3CC3)cc2F)CCCN1c1cnc(C(N)=O)c(Nc2ccc(N3CCN(C)CC3)cn2)n1` [Example D-8, 5-[(2R,3R)-3-(4-cyclopropyl-2-fluorobenzamido)-2-methylpiperidin-1-yl]-3-{[5-(4-methylpiperazin-1-yl)pyridin-2-yl]amino}pyrazine-2-carboxamide] was tested. Which pIC50 (LCK) did it give?
A: < 5.00

Q: What about the pIC50 (ITK) of the same molecule?
A: < 5.00

Q: What about the pIC50 (BTK-WT) of the same molecule?
A: 7.00 to 8.00

Q: And the pIC50 (EGFR)?
A: < 5.00

Q: And the pIC50 (SRC)?
A: < 5.00

Q: With `C[C@@H]1[C@H](NC(=O)Nc2cccnc2)CCCN1c1cnc(C(N)=O)c(Nc2ccc(C3(C)CCN(C4CCCC4)CC3)cc2)n1` [Example D-9, 3-{[4-(1-cyclopentyl-4-methylpiperidin-4-yl)phenyl]amino}-5-[(2R,3R)-2-methyl-3-{[(pyridin-3-yl)carbamoyl]amino}piperidin-1-yl]pyrazine-2-carboxamide] as the molecule, how does the pIC50 (LCK) read?
A: > 8.00

Q: What about the pIC50 (ITK) of the same molecule?
A: ≥ 8.00

Q: And the pIC50 (BTK-WT)?
A: ≥ 8.00

Q: What about the pIC50 (EGFR) of the same molecule?
A: 7.00 to 8.00

Q: What about the pIC50 (SRC) of the same molecule?
A: ≥ 8.00

Q: With `C[C@@H]1[C@H](NC(=O)c2ccc(C3CC3)cc2F)CCCN1c1cnc(C(N)=O)c(Nc2ccc(N3CCN(C)CC3=O)cc2)n1` [Example D-10, 5-[(2R,3R)-3-(4-cyclopropyl-2-fluorobenzamido)-2-methylpiperidin-1-yl]-3-{[4-(4-methyl-2-oxopiperazin-1-yl)phenyl]amino}pyrazine-2-carboxamide] as the molecule, how does the pIC50 (LCK) read?
A: 6.00 to 7.00

Q: And the pIC50 (ITK)?
A: 6.00 to 7.00

Q: What about the pIC50 (BTK-WT) of the same molecule?
A: ≥ 8.00

Q: What about the pIC50 (EGFR) of the same molecule?
A: 6.00 to 7.00

Q: What about the pIC50 (SRC) of the same molecule?
A: 6.00 to 7.00

Q: With `C[C@@H]1[C@H](NC(=O)c2ccc(C(F)(F)F)cc2)CCCN1c1cnc(C(N)=O)c(Nc2ccc(N3CCN(C)CC3)cc2)n1` [Example D-11, 5-[(2R,3R)-2-methyl-3-[4-(trifluoromethyl)benzamido]piperidin-1-yl]-3-{[4-(4-methylpiperazin-1-yl)phenyl]amino}pyrazine-2-carboxamide] as the molecule, how does the pIC50 (LCK) read?
A: 7.00 to 8.00

Q: What about the pIC50 (ITK) of the same molecule?
A: 6.00 to 7.00

Q: And the pIC50 (BTK-WT)?
A: ≥ 8.00

Q: And the pIC50 (EGFR)?
A: 6.00 to 7.00

Q: What about the pIC50 (SRC) of the same molecule?
A: 7.00 to 8.00

Q: Which results are given for `C[C@@H]1[C@H](NC(=O)c2ccc(OC(F)(F)F)cc2)CCCN1c1cnc(C(N)=O)c(Nc2cnn(C)c2)n1` [Example D-95, 3-[(1-methyl-1H-pyrazol-4-yl)amino]-5-[(2R,3R)-2-methyl-3-[4-(trifluoromethoxy)benzamido]piperidin-1-yl]pyrazine-2-carboxamide]?
A: pIC50 (LCK): 6.00 to 7.00; pIC50 (ITK): 6.00 to 7.00; pIC50 (BTK-WT): ≥ 8.00; pIC50 (EGFR): 6.00 to 7.00; pIC50 (SRC): 6.00 to 7.00
